# According to patent US20250154611A1, “SYSTEMS AND METHODS TO DETECT STEM CELL STRESS AND USES THEREOF” (Wayne State University, priority 2014, published 2025):
# Like-named read-outs stand apart in the source and are kept apart here.
# Columns and labels:
# [1] = tested on: JNK; assay: phospho-JNK western blot in mESCs under 200 mM sorbitol; type: cell-based, mouse; details: persisted throughout 1 hr
# Procedure: FIG. 14. […] Blots are representative of triplicate experiments. Phospho-proteins and their loading controls are grouped between black lines.
# FIG. 15. […] Blots are representative of triplicate experiments.
# Hyperosmotic activation of signaling enzymes. […] Zhong, 2010; Xie, 2011. […] To determine the kinetics of activation of these five kinases in the described system, mESCs were treated with 200 mM sorbitol for 1 hr. Expression levels of the activated (i.e., phosphorylated) enzymes were assayed by western blot analysis (FIG. 14), including phospho-p38MAPK, phospho-JNK, phospho-MEK1/2, and phospho-AKT (the downstream effector of PI3K signaling).
# Efficacy of enzyme inhibitors.
# [2] = tested on: mESCs; assay: RT-qPCR of lineage markers Dab2, Lrp2, Fgf5 in mESC monolayer; type: cell-based, mouse; details: 24 hr
# Text: FIGS. 16A-16E. Hyperosmotic stress in mESCs impacts transcription factor expression at protein and mRNA levels. (FIG. 16A) The inner cell mass (ICM) of the blastocyst coexpresses Oct4/Rex1/Nanog in pluripotent cells at E3.5. After E3.5 a Rex1 subpopulation delaminates from the ICM and expresses primitive endoderm (PrEndo) marker, Lrp2, at E3.5 and extraembryonic endoderm (ExEndo) marker, Dab2, at E4.5. At E4.75, Rex1 decreases in the remaining cells of the ICM and, by E5.5, fibroblast growth factor (FGF)5 is expressed in embryonic ectoderm (EmEcto). […] (FIG. 16C) Total RNA was isolated and subjected to reverse transcription to form complementary DNA (cDNA). Real-time quantitative PCR (RTqPCR) was performed with Oct4, Nanog, and Rex1 primers. Histograms represent relative fold change in mRNA expression using the ddCt method. (FIG. 16D) mESCs in monolayer were incubated±sorbitol and ±LIF for 24 hr. Dab2, Lrp2, and Fgf5 mRNA transcript levels were examined by RT-qPCR. […] Error flags are the standard error of the mean (n=3). “a” indicates significant difference for sorbitol +LIF compared with LIF− at 24 hr. […]
# RT-qPCR analysis. mESCs were trypsinized and harvested for RT-Qpcr analysis using a 7500 Fast Real Time PCR System (Applied Biosystems). […] RNA content was measured using ND-1000 Spectrophotometer (NanoDrop and ThermoScientific, Wilmington, DE). Complementary DNA (cDNA) was synthesized from 50 to 100 ng of total RNA using QuantiTect Reverse Transcription Kit (Qiagen) according to the manufacturer's instructions, and diluted 1:5. […]
# Primer pairs were checked for specificity using BLAST analysis and were checked by both agarose gel electrophoresis and thermal dissociation curves to ensure amplification of a single product, and to rule out formation of primer dimers during the RT-qPCR. […] The expression of the target genes was quantified against that of two internal reference genes, glyceraldehyde-3-phosphate dehydrogenase (GAPDH) and 18s ribosomal RNA subunit (18s rRNA). […] Fold change was determined using the ddCt method. […]
# [3] = tested on: Rex1; assay: Immunoblot of endogenous Rex1 protein in Rex1-RFP ESCs; type: cell-based, mouse; details: 3 days
# Procedure: FIG. 27. Rex1 promoter RFP have a stress dose-dependent loss of endogenous Rex1 protein corresponding to dose-dependent loss of Rex1 activity shown in FIG. 24. (A) Rex1-RFP mESCs expressing cultured until 30% confluent, treated with 0 mM, 200-300 mM sorbitol in 25 mM increments for 3 days (as in FIG. 24), lysed, size fractionated by SDS-PAGE, blotted, probed for Rex1 and ACTB proteins and analyzed for changes compared to time zero and for stress dose responses. The histogram bars are derived from three independent experiments, one of which is shown in the top panel of FIG. 27, shown are X+/−s.e.m., n=3, (a) is P<0.01 and (b) indicates not significant. FIG. 27, bottom panel.
# Immunoblot. After treatment, the ESCs were rinsed with PBS, lysed with RIPA buffer supplemented with protease inhibitors and sonicated briefly. Total protein concentration was determined using Pierce BCA protein assay reagent admixed with Laemmli sample buffer, and boiled for 5 min. Equal total protein amounts from the lysates were size-fractionated by 5-20% gradient SDS-PAGE and transferred onto nitrocellulose membrane. Rex1 […] signals were detected using ECL reagent with X-ray films and quantified using ImageJ 1.48v software (NIH, USA).
# Finally it was tested whether endogenous Rex1 protein levels decreased commensurately with decreases in Rex1-RFP activity levels assayed in FIG. 24. Rex1-RFP ESCs were cultured for 3 days with 0-300 mM sorbitol and assayed by immunoblot for endogenous Rex1 levels normalized to ACTB loading controls and with time zero unstressed Rex1 set to 100 as a baseline level. Whereas stress-induced decrease in Rex1 activity in FIG. 24 were 20% and 70% at 200 mM and 300 mM sorbitol, respectively endogenous Rex1 protein losses were 30% and 70% at 200 mM and 300 mM, respectively (FIG. 27). Through the series from 200 mM to 300 mM sorbitol there was generally good agreement between activity level and endogenous protein level for Rex1 at 3 days of stress and with Rex1 protein loss at 1 day (Example 2). […]
# [4] = tested on: mESCs
# Procedure: Hyperosmotic stress effects on cell proliferation in murine embryonic stem cells (mESCs). (FIG. 13A) mESCs were cultured in the presence of 0-400 mM sorbitol for either 4 or 24 hr and transmitted light micrographs were taken. (FIG. 13B) mESCs were cultured±leukemia inhibitory factor (LIF) and ±200 mM sorbitol for 0-72 hr. mESCs were trypsinized and counted with a hemocytometer following trypan blue exclusion. Error flags represent standard error of the mean, n≥3. (FIG. 13C) Doubling rates were calculated and tabulated from cell counts in (FIG. 13B). (FIG. 13D) mESCs were incubated in the presence of LIF±200 mM sorbitol for 24, 48, or 72 hr and transmitted light micrographs were taken. (FIG. 13E) mESCs were cultured in the presence of 200 mM sorbitol for 0-24 hr. In some wells, cells were lysed, and proteins were fractionated using sodium dodecyl sulfate-polyacrylamide gel electrophoresis (SDS-PAGE), blotted, and probed for the presence of the caspase 3 cleavage product (n=3). Time-matched cells were fixed, and stained for the cleavage product of caspase 3 with Hoechst staining of the nuclei. […]
# Results. mESC growth and colony morphology during hyperosmotic stress. […] Osmolality was measured at 330±4 mOsm/kg H2O before sorbitol addition (described in “Materials and Methods” section; Zhong, 2007), and 531±7 mOsm/kg H2O after addition of 200 mM sorbitol. […]
# [5] = tested on: SAPK; details: 100 mM, 20% O2, despite FGF4; cited from earlier work
# [6] = 200 mM +LIF, vs time-matched +LIF and -LIF controls
smiles,measurement,setting,value
OC[C@@H](O)[C@@H](O)[C@H](O)[C@@H](O)CO [sorbitol],time at which activated JNK was first detected,[1],20 min
same,Dab2 mRNA expression,[2]; [6],significantly higher
same,Lrp2 mRNA expression,[2]; [6],significantly higher
same,upregulation of EmEcto marker Fgf5 mRNA,[2]; 200 mM,suppressed
same,endogenous Rex1 protein loss,[3]; 200 mM,30%
same,endogenous Rex1 protein loss,[3]; 300 mM,70%
same,endogenous Rex1 protein,"[3]; 225-300 mM, not at 200 mM",significantly lower
same,lethality in mESCs,[4]; 200 mM,nonlethal
same,lethality in mESCs,[4]; 400 mM,lethal
same,SAPK increase,[5],5 fold
